Laboratory results from US8748436B2, “Carboxylic acid derivatives having a 2,5,7-substituted oxazolopyrimidine ring” (Sanofi, priority 2010, dated 2014).

The compounds below were run against T1, human Edg-1 receptor (Homo sapiens, UniProt P21453) (assay: GTP-γ-S assay using human Edg-1 receptors (scintillation proximity assay, CHO Flp-In cell membrane preparation)). Settings: test compound at 10 μM; high control 10 μM S1P regarded as 100% activation; [35S]GTP-γ-S binding, triplicate; read-out: % Activation (Edg-1 receptor activation in percent of the activation by 10 μM S1P).
T1 construct: FLAG (N); expressed in transfected cells; membrane preparation
T1 sequence (P21453 whole entry): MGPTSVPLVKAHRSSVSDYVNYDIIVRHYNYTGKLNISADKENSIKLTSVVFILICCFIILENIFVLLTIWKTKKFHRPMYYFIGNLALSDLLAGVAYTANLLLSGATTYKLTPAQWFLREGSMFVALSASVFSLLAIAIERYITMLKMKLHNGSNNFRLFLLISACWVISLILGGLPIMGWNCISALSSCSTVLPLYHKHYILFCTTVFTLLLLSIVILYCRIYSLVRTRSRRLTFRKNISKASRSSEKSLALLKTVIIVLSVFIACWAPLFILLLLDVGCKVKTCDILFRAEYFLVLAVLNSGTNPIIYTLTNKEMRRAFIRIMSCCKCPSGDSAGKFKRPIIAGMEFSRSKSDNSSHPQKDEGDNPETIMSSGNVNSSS
Assay type: biochemical
Excerpt: A) GTP-γ-S Assay Using Human Edg-1 Receptors
In order to determine the Edg-1 receptor activation by the compounds of the invention, a GTP-γ-S (guanosine 5′-[thio]triphosphate) assay for G-protein coupled receptor binding based on the scintillation proximity assay principle was used, employing a cell membrane preparation from a CHO Flp-In cell line which constitutively overexpresses the human Edg-1 receptor.
The Flp-In™ expression system (Invitrogen, cat. no. K6010-01) allows the generation of stable mammalian cell lines into which the gene of interest has been integrated through homologous recombination at a specific genomic location called Flp Recombination Target (FRT) site by means of a Flp recombinase encoded by the pOG44 expression plasmid. The integration of the pcDNA5/FRT expression construct into the Flp-In host cell line genome results in the transcription of the gene of interest. The stably transfected cells become hygromycin-resistant.
One day prior to transfection, 200 000 Flp-In-CHO cells were seeded in Ham F-12 medium (Invitrogen, cat. no. 31765) supplemented with 10% fetal calf serum (FCS; Perbio Science, cat. no. SH30068.03) in a 6-well plate and incubated at 37° C./5% CO2 overnight. Using the FuGENE® 6 transfection reagent (Roche, cat. no. 11988387001), cells were cotransfected with the Flp recombinase expression plasmid pOG44 and a modified plasmid additionally containing the edg-1 gene (accession no. NM_001400) termed as pcDNA5-FRT-TO_nFLAG_DEST-EDG-1 with a 9:1 ratio. To obtain the modified pcDNA5-FRT-TO_nFLAG_DEST plasmid, the Invitrogen plasmid pcDNA5/FRT/TO (Invitrogen, cat. no. V6520-20) was adapted to the Gateway® (Invitrogen) cloning system by inserting a Gateway cassette containing attR recombination sites flanking a ccdB gene and a chloramphenicol-resistance gene (Gateway conversion system, Invitrogen, cat. no. 11828-029). In addition a FLAG tag epitope was added before the 5′ att recombination site to allow recombinant expression of N-terminally FLAG-tagged proteins.
For the transfection of one well, 1.08 μg of pOG44 and 0.12 μg of pcDNA5-FRT-TO_nFLAG_DEST-EDG-1 were mixed to 100 μl of serum-free Ham F-12 medium containing 6 μl of FuGENE® 6 transfection reagent. After 20 min of incubation, the transfection reagent/DNA complex was distributed dropwise on the cells. The cells were incubated for 24 h at 37° C. Then the cells from 3 wells were transferred to a T75 flask (Greiner Cellstar®, cat. no. 658175) containing Ham F-12 medium supplemented with 10% of FCS but without antibiotic and were incubated another 24 h. 48 h after transfection, the medium was replaced by selection medium (Ham F-12 supplemented with 10% of FCS and 300 μg/ml of hygromycin B (Invitrogen, cat. no. 10687-010)). The medium was exchanged every 2 to 3 days until a resistant population of cells had grown. […] After 2 weeks of selection, the cells were transferred into T175 flasks (Greiner Cellstar®, cat. no. 660175) and cultivated for batch production. Cells were harvested from the culture flasks by short treatment (2 to 5 min) with Accutase (PAA, cat. no. L11-007), resuspended in selection medium (see above) and centrifuged at 200×g for 5 min. The cells were resuspended in a mixture of 90% of FCS and 10% of dimethylsulfoxide and stored frozen in liquid nitrogen.
A membrane preparation was obtained by standard methods from the afore-described CHO Flp-In cell line constitutively overexpressing the human Edg-1 receptor. Briefly, the cryopreserved cells were taken in culture and grown until confluency in T175 cell culture flasks (Becton Dickinson, cat. no. 35 5001). […]
`CCCOc1nc(Oc2ccc(C)cc2F)nc2oc(-c3cc(C)c(OCC(=O)O)c(C)c3)nc12` [Example 44, {4-[5-(2-fluoro-4-methylphenoxy)-7-propoxy-oxazolo[5,4-d]pyrimidin-2-yl]-2,6-dimethylphenoxy}-acetic acid] showed an activation at 10 µM of 43%.
`CCCOc1nc(Oc2cc(F)cc(C(F)(F)F)c2)nc2oc(-c3cc(C)c(OCC(=O)O)c(C)c3)nc12` [Example 75, {4-[5-(3-fluoro-5-trifluoromethylphenoxy)-7-propoxy-oxazolo[5,4-d]pyrimidin-2-yl]-2,6-dimethyl-phenoxy}-acetic acid] gave an activation at 10 µM of 48%.
In the case of `CCCOc1nc(Oc2ccc3ccccc3c2)nc2oc(-c3cc(C)c(OCC(=O)O)c(C)c3)nc12` [Example 57, {2,6-dimethyl-4-[5-(naphthalen-2-yloxy)-7-propoxy-oxazolo[5,4-d]pyrimidin-2-yl]-phenoxy}-acetic acid], the activation at 10 µM is reported as 58%.
`CCCOc1nc(Oc2ccccc2F)nc2oc(-c3cc(C)c(OCC(=O)O)c(C)c3)nc12` [Example 4, {4-[5-(2-fluoro-phenoxy)-7-propoxy-oxazolo[5,4-d]pyrimidin-2-yl]-2,6-dimethyl-phenoxy}-acetic acid] gave an activation at 10 µM of 76%.
`CCCOc1nc(OC2CCC2)nc2oc(-c3cc(C)c(OCC(=O)O)c(C)c3)nc12` [Example 14, [4-(5-cyclobutoxy-7-propoxy-oxazolo[5,4-d]pyrimidin-2-yl)-2,6-dimethyl-phenoxy]-acetic acid] gave an activation at 10 µM of 88%.
With `CCCOc1nc(Oc2ccc3ncsc3c2)nc2oc(-c3cc(C)c(OCC(=O)O)c(C)c3)nc12` [Example 66, {4-[5-(benzothiazol-6-yloxy)-7-propoxy-oxazolo[5,4-d]pyrimidin-2-yl]-2,6-dimethylphenoxy}-acetic acid] the activation at 10 µM was 102%.
In the case of `CCCOc1nc(Oc2cccc(C(F)(F)F)c2F)nc2oc(-c3cc(C)c(OCC(=O)O)c(C)c3)nc12` [Example 72, {4-[5-(2-fluoro-3-trifluoromethylphenoxy)-7-propoxy-oxazolo[5,4-d]pyrimidin-2-yl]-2,6-dimethyl-phenoxy}-acetic acid], the activation at 10 µM is reported as 48%.
Work on `CCCOc1nc(Oc2ccccc2C)nc2oc(-c3cc(C)c(OCC(=O)O)c(C)c3)nc12` [Example 30, [2,6-dimethyl-4-(7-propoxy-5-(2-methylphenoxy)-oxazolo[5,4-d]pyrimidin-2-yl)-phenoxy]-acetic acid] yielded an activation at 10 µM of 97%.
`CCCOc1nc(Oc2cncc(F)c2)nc2oc(-c3cc(C)c(OCC(=O)O)c(C)c3)nc12` [Example 37, {4-[5-(5-fluoropyridin-3-yloxy)-7-propoxy-oxazolo[5,4-d]pyrimidin-2-yl]-2,6-dimethyl-phenoxy}-acetic acid] gave an activation at 10 µM of 117%.
With `CCCOc1nc(Oc2cnc3ccccc3c2)nc2oc(-c3cc(C)c(OCC(=O)O)c(C)c3)nc12` [Example 58, {2,6-dimethyl-4-[7-propoxy-5-(quinolin-3-yloxy)-oxazolo[5,4-d]pyrimidin-2-yl]-phenoxy}-acetic acid] the activation at 10 µM was 75%.
With `CCCOc1nc(OC2CCCC2)nc2oc(-c3cc(C)c(OCC(=O)O)c(C)c3)nc12` [Example 2, [4-(5-Cyclopentyloxy-7-propoxy-oxazolo[5,4-d]pyrimidin-2-yl)-2,6-dimethyl-phenoxy]-acetic acid] the activation at 10 µM was 90%.
With `CCCOc1nc(Oc2cc(F)ccc2F)nc2oc(-c3cc(C)c(OCC(=O)O)c(C)c3)nc12` [Example 1, {4-[5-(2,5-Difluoro-phenoxy)-7-propoxy-oxazolo[5,4-d]pyrimidin-2-yl]-2,6-dimethyl-phenoxy}-acetic acid] the activation at 10 µM was 100%.
For `CCCOc1nc(Oc2cccc(SC(F)(F)F)c2)nc2oc(-c3cc(C)c(OCC(=O)O)c(C)c3)nc12` [Example 76, {2,6-dimethyl-4-[7-propoxy-5-(3-trifluoromethylsulfanyl-phenoxy)-oxazolo[5,4-d]pyrimidin-2-yl]-phenoxy}-acetic acid], the activation at 10 µM was 81%.
Work on `CCCOc1nc(OCC2CCCCC2)nc2oc(-c3cc(C)c(OCC(=O)O)c(C)c3)nc12` [Example 11, [4-(5-cyclohexylmethoxy-7-propoxy-oxazolo[5,4-d]pyrimidin-2-yl)-2,6-dimethyl-phenoxy]-acetic acid] yielded an activation at 10 µM of 76%.
In the case of `CCCOc1nc(Oc2cccc3c2CCC3)nc2oc(-c3cc(C)c(OCC(=O)O)c(C)c3)nc12` [Example 52, {4-[5-(indan-4-yloxy)-7-propoxy-oxazolo[5,4-d]pyrimidin-2-yl]-2,6-dimethylphenoxy}-acetic acid], the activation at 10 µM is reported as 54%.
`CCCOc1nc(Oc2ccc(F)cc2F)nc2oc(-c3cc(C)c(OCC(=O)O)c(C)c3)nc12` [Example 8, {4-[5-(2,4-difluoro-phenoxy)-7-propoxy-oxazolo[5,4-d]pyrimidin-2-yl]-2,6-dimethyl-phenoxy}-acetic acid] was tested, and the activation at 10 µM was 84%.
`CCCOc1nc(OCC2CCCO2)nc2oc(-c3cc(C)c(OCC(=O)O)c(C)c3)nc12` (stereo not drawn) [Example 19, {2,6-dimethyl-4-[7-propoxy-5-(tetrahydrofuran-2-ylmethoxy)-oxazolo[5,4-d]pyrimidin-2-yl]-phenoxy}-acetic acid] showed an activation at 10 µM of 84%.
`CCCOc1nc(Oc2ccc(C)c(F)c2)nc2oc(-c3cc(C)c(OCC(=O)O)c(C)c3)nc12` [Example 6, {4-[5-(3-fluoro-4-methyl-phenoxy)-7-propoxy-oxazolo[5,4-d]pyrimidin-2-yl]-2,6-dimethyl-phenoxy}-acetic acid] gave an activation at 10 µM of 73%.
Work on `CCOc1nc(Oc2cccc(F)c2)nc2oc(-c3cc(C)c(OCC(=O)O)c(C)c3)nc12` [Example 25, {4-[7-ethoxy-5-(3-fluorophenoxy)-oxazolo[5,4-d]pyrimidin-2-yl]-2,6-dimethyl-phenoxy}-acetic acid] yielded an activation at 10 µM of 84%.
`CCCOc1nc(Oc2ccc(F)c(C)c2)nc2oc(-c3cc(C)c(OCC(=O)O)c(C)c3)nc12` [Example 43, {4-[5-(4-fluoro-3-methylphenoxy)-7-propoxy-oxazolo[5,4-d]pyrimidin-2-yl]-2,6-dimethyl-phenoxy}-acetic acid] showed an activation at 10 µM of 60%.
`CCCOc1nc(Oc2ccc(C(F)(F)F)cc2)nc2oc(-c3cc(C)c(OCC(=O)O)c(C)c3)nc12` [Example 68, {2,6-dimethyl-4-[7-propoxy-5-(4-trifluoromethylphenoxy)-oxazolo[5,4-d]pyrimidin-2-yl]-phenoxy}-acetic acid] was tested, and the activation at 10 µM was 69%.
`CCCOc1nc(Oc2ccc(C)cc2)nc2oc(-c3cc(C)c(OCC(=O)O)c(C)c3)nc12` [Example 31, [2,6-dimethyl-4-(7-propoxy-5-(4-methylphenoxy)-oxazolo[5,4-d]pyrimidin-2-yl)-phenoxy]-acetic acid] gave an activation at 10 µM of 72%.
`CCCOc1nc(Oc2cc(C(F)(F)F)ccc2Cl)nc2oc(-c3cc(C)c(OCC(=O)O)c(C)c3)nc12` [Example 77, {4-[5-(2-chloro-5-trifluoromethylphenoxy)-7-propoxy-oxazolo[5,4-d]pyrimidin-2-yl]-2,6-dimethyl-phenoxy}-acetic acid] was tested, and the activation at 10 µM was 77%.
`CCCOc1nc(Oc2ccsn2)nc2oc(-c3cc(C)c(OCC(=O)O)c(C)c3)nc12` [Example 27, {4-[5-(isothiazol-3-yloxy)-7-propoxy-oxazolo[5,4-d]pyrimidin-2-yl]-2,6-dimethylphenoxy}-acetic acid] gave an activation at 10 µM of 109%.
